Data on twelve compounds can be found in ChEMBL document CHEMBL1201862, “PubChem BioAssay data set” (2004).

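Five concentrations, 48 hours, 96-well plates. Here, GI50 denotes the concentration required for 50% inhibition of growth.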 Calls of active or inactive are those of the source. Rule as the data show it: active = GI50 up to about 1.1 µM and inactive = higher.

Some test systems named below: HOP-92; SF-268; SK-OV-3; M14; HL-60; A549; IGROV-1; SW-620; NCI-H522; EKVX; OVCAR-8; UACC-62; RPMI-8226; HCT-116; MDA-MB-231; SF-539; MCF7; BT-549; OVCAR-4.
What all share (assay): NCI-60 cell line screen, 48 h

In the case of `COc1ccc(/C(=N/O)c2ccccc2C2=Nc3ccccc3C(NCc3ccccc3)O2)cc1C` (stereo not given), the GI50 is 20.5 µM (inactive) in the experiment on HOP-92; 42.3 µM (inactive) in the experiment on SF-268; 21.2 µM (inactive) with SK-OV-3; 39.4 µM (inactive) in the experiment on M14; 34.8 µM (inactive) in the experiment on HL-60; 49 µM (inactive) with A549. The GI50 with IGROV-1 was 40.5 µM (inactive); in the experiment with SW-620, 21.8 µM (inactive); in the experiment with NCI-H522, 34 µM (inactive); in the experiment on EKVX, 74.5 µM (inactive); in the experiment on OVCAR-8, 27.2 µM (inactive); with UACC-62, 23.9 µM (inactive). The GI50 with RPMI-8226 is 26.2 µM (inactive); with HCT-116, 25.8 µM (inactive); with MDA-MB-231 it was 32.7 µM (inactive); with SF-539 it was 96.2 µM (inactive); in the experiment on MCF7, 29.2 µM (inactive).

On to `NC(=S)N/N=C1\CCCCc2ccccc21`, for which the GI50 in the experiment on SF-268, in the experiment with M14, in the experiment with HL-60, in the experiment on BT-549, with A549 and in the experiment with SW-620 was > 10 µM (inactive) throughout. Besides, the GI50 in the experiment with NCI-H522, with EKVX, with OVCAR-8, in the experiment on RPMI-8226, in the experiment with HCT-116 and with OVCAR-4 was > 10 µM (inactive) throughout. Moreover, in the experiment on MCF7, the GI50 is > 10 µM (inactive).

Turning to `CCOC(=O)Cc1ccc(Nc2nc3ccccc3nc2C(=O)OCC)cc1`, the GI50 with HOP-92 is 43.8 µM (inactive); in the experiment on SF-268, 53.7 µM (inactive); with SK-OV-3, 54.1 µM (inactive); with M14 it was > 100 µM (inactive); with HL-60, > 100 µM (inactive); in the experiment on BT-549, 26.2 µM (inactive). Moreover, the GI50 was 35.2 µM (inactive) in the experiment on A549; 57.5 µM (inactive) in the experiment with IGROV-1; > 100 µM (inactive) in the experiment on SW-620; 89.9 µM (inactive) in the experiment with NCI-H522; 38.4 µM (inactive) with EKVX; 56.1 µM (inactive) in the experiment with OVCAR-8. For the same compound, the GI50 with UACC-62 is 45.2 µM (inactive); in the experiment with HCT-116, > 100 µM (inactive); with OVCAR-4, 77.1 µM (inactive); in the experiment on SF-539, 37.1 µM (inactive); in the experiment on MCF7, 61.7 µM (inactive).

Turning to `O=S1(=O)OCCOS(=O)(=O)C1F`, the GI50 is > 100 µM (inactive) in the experiment with SF-268; > 100 µM (inactive) in the experiment with SK-OV-3; > 100 µM (inactive) in the experiment with M14; > 100 µM (inactive) with HL-60; 0.0293 µM (active) with BT-549; > 100 µM (inactive) in the experiment with A549. In addition, the GI50 in the experiment on SW-620, with NCI-H522, in the experiment with EKVX, in the experiment on OVCAR-8, in the experiment on UACC-62 and with RPMI-8226 was > 100 µM (inactive) in each case. Also, the GI50 was > 100 µM (inactive) in the experiment on HCT-116, > 100 µM (inactive) with OVCAR-4, 43.6 µM (inactive) in the experiment with SF-539 and > 100 µM (inactive) in the experiment with MCF7.

Take `Nc1ccc(/N=N/c2c(S(=O)(=O)O)cc3ccccc3c2S(=O)(=O)O)cc1`: the GI50 in the experiment on HOP-92, with SF-268, with M14, in the experiment on BT-549, in the experiment on A549 and in the experiment on IGROV-1 was > 100 µM (inactive) throughout. The GI50 in the experiment on SW-620, with NCI-H522, in the experiment on EKVX, in the experiment on OVCAR-8, in the experiment with UACC-62 and in the experiment with HCT-116 was > 100 µM (inactive) each time. Also, the GI50 in the experiment with MDA-MB-231 and in the experiment on OVCAR-4 was > 100 µM (inactive) in each case.

As for `COC(=O)C(CCc1ccccc1I)C1=CCC2(CC1)OCCO2` (stereo not given), the GI50 was 30.4 µM (inactive) with HOP-92; 57.9 µM (inactive) in the experiment with SF-268; > 100 µM (inactive) in the experiment on SK-OV-3; 28.2 µM (inactive) in the experiment on M14; 0.0435 µM (active) in the experiment on HL-60; 31 µM (inactive) in the experiment on A549. Further, the GI50 with IGROV-1 is 96.2 µM (inactive); with SW-620, 40.4 µM (inactive); in the experiment on NCI-H522, 18.7 µM (inactive); in the experiment with EKVX, 70.8 µM (inactive); in the experiment with OVCAR-8, 42 µM (inactive); in the experiment on UACC-62, 81.5 µM (inactive). In addition, the GI50 is 62.2 µM (inactive) with RPMI-8226; 65.5 µM (inactive) with MDA-MB-231; 40.1 µM (inactive) in the experiment with OVCAR-4; > 100 µM (inactive) with SF-539; 32.7 µM (inactive) in the experiment with MCF7.

On to `C#CCOCn1cnc2ncnc(N)c21`, for which the GI50 in the experiment on HOP-92, in the experiment on SF-268, with SK-OV-3, in the experiment on A549, in the experiment on IGROV-1 and in the experiment with SW-620 was > 100 µM (inactive) in each case. The GI50 in the experiment with NCI-H522, in the experiment on EKVX, in the experiment with OVCAR-8, with UACC-62, with RPMI-8226 and in the experiment with HCT-116 was > 100 µM (inactive) in each case. Besides, the GI50 in the experiment on OVCAR-4 and in the experiment with SF-539 was > 100 µM (inactive) in each case.

With `CCC#CCCCCCCCCC(F)C(=O)O` (stereo not given), the GI50 in the experiment on HOP-92, with SF-268, in the experiment on SK-OV-3, in the experiment on M14, in the experiment on HL-60 and in the experiment with A549 was > 100 µM (inactive) in each case. The GI50 with IGROV-1, in the experiment on SW-620, with NCI-H522, in the experiment on EKVX, in the experiment on OVCAR-8 and in the experiment on RPMI-8226 was > 100 µM (inactive) each time. The GI50 in the experiment with HCT-116, in the experiment with MDA-MB-231, in the experiment with OVCAR-4, with SF-539 and with MCF7 was > 100 µM (inactive) in each case.

As to `COc1cccc(C2c3cc4c(cc3OC(C)(N3CCCC3)C2C)OCO4)c1` (stereo not given), the GI50 was 10.2 µM (inactive) in the experiment on HOP-92; 27.4 µM (inactive) in the experiment with SF-268; 11.9 µM (inactive) in the experiment with SK-OV-3; 4.12 µM (inactive) in the experiment with M14; 23.1 µM (inactive) in the experiment with HL-60; 7.55 µM (inactive) in the experiment with A549. Also, the GI50 was 8.38 µM (inactive) in the experiment with IGROV-1; 6.55 µM (inactive) in the experiment on SW-620; 2.37 µM (inactive) in the experiment on NCI-H522; 24.6 µM (inactive) in the experiment with EKVX; 20.9 µM (inactive) in the experiment with OVCAR-8; 5.38 µM (inactive) in the experiment with UACC-62. In addition, the GI50 with HCT-116 is 7.62 µM (inactive); with MDA-MB-231 it was 7.78 µM (inactive); in the experiment with OVCAR-4 it was 14.3 µM (inactive); in the experiment with SF-539 it was 13.9 µM (inactive); in the experiment with MCF7 it was 9.51 µM (inactive).

On to `CCOC(=O)NC1CN2CCC1CC2` (stereo not given), for which the GI50 with HOP-92, in the experiment with SF-268, in the experiment with SK-OV-3, in the experiment on M14, with HL-60 and in the experiment on A549 was > 100 µM (inactive) each time. Also, the GI50 with IGROV-1, with SW-620, with NCI-H522, in the experiment with EKVX, with OVCAR-8 and in the experiment on UACC-62 was > 100 µM (inactive) throughout. In addition, the GI50 with RPMI-8226, with HCT-116, with MDA-MB-231, in the experiment with OVCAR-4 and in the experiment on SF-539 was > 100 µM (inactive) in each case.

In the case of `COc1cc(C2c3cc4c(cc3[C@@H](Nc3ccccc3)C3CO[C@@H](OC)[C@H]23)OCO4)cc(OC)c1O` (stereo not given in full), the GI50 is 7.29 µM (inactive) in the experiment with SF-268; 9.06 µM (inactive) in the experiment with SK-OV-3; 10.4 µM (inactive) in the experiment with M14; 2.87 µM (inactive) with HL-60; 2.13 µM (inactive) in the experiment with A549; 20.9 µM (inactive) in the experiment with IGROV-1. Further, the GI50 with SW-620 is 6.52 µM (inactive); with NCI-H522 it was 6.58 µM (inactive); with EKVX it was 20.7 µM (inactive); in the experiment on OVCAR-8 it was 7.03 µM (inactive); in the experiment on RPMI-8226, 3.01 µM (inactive); in the experiment on HCT-116 it was 7.38 µM (inactive). For the same compound, the GI50 in the experiment on OVCAR-4 was > 25 µM (inactive); in the experiment with SF-539, 5.41 µM (inactive); in the experiment with MCF7 it was 4.5 µM (inactive).

`Cc1nn2c(N)cc(=O)nc2nc1/C=C/c1ccc(N(C)C)cc1`: the GI50 was > 100 µM (inactive) in the experiment with SF-268; > 100 µM (inactive) in the experiment on SK-OV-3; > 28 µM (inactive) with M14; < 0.01 µM (active) in the experiment with HL-60; > 32 µM (inactive) with BT-549; 16.9 µM (inactive) in the experiment on A549. The GI50 with IGROV-1 was 16.6 µM (inactive); in the experiment with SW-620, > 100 µM (inactive); with NCI-H522, 1.66 µM (inactive); in the experiment with EKVX it was 7.23 µM (inactive); in the experiment with OVCAR-8, > 25.2 µM (inactive); with UACC-62, 5.02 µM (inactive). Also, the GI50 in the experiment with RPMI-8226 is 10.1 µM (inactive); in the experiment with HCT-116 it was 12 µM (inactive); in the experiment with OVCAR-4, > 26.5 µM (inactive); with MCF7 it was 3.92 µM (inactive).
